Experimental data from US11746115B2, “Solid forms of 7-[[(1S)-1-[4-[(1S)-2-cyclopropyl-1-(4-prop-2-enoylpiperazin-1-yl)ethyl]phenyl]ethyl]amino]-1-ethyl-4H-pyrimido[4,5-d][1,3]oxazin-2-one” (Eli Lilly and Company, priority 2021, dated 2023).

How the values were obtained:
[1] = Preclinical solubility studies of Compound A; format: physicochemical; details: certain preclinical studies
[2] = Non-sink dissolution (microcentrifuge assay, pH 2 then FaSSIF pH 6.5); format: physicochemical; details: after FaSSIF pH 6.5 transfer
Method: Non-sink dissolution is performed by adding the test composition to a solution of 0.01 N HCl pH 2 (e.g., in a centrifuge tube) and analyzing for 7-[[(1S)-1-[4-[(1S)-2-cyclopropyl-1-(4-prop-2-enoylpiperazin-1-yl)ethyl]phenyl]ethyl]amino]-1-ethyl-4H-pyrimido[4,5-d][1,3]oxazin-2-one solution concentration, by HPLC, at approximately time zero, 20 and 40 minutes. After approximately 40 minutes, a solution of fasted state simulated intestinal fluid (FaSSIF) pH 6.5, with 0.224 wt % bile salts, is added to the pH 2 solution. The 7-[[(1S)-1-[4-[(1S)-2-cyclopropyl-1-(4-prop-2-enoylpiperazin-1-yl)ethyl]phenyl]ethyl]amino]-1-ethyl-4H-pyrimido[4,5-d][1,3]oxazin-2-one concentration is monitored, by HPLC, at approximately 50, 70, 90 and 120 minutes after time zero. At each timepoint the samples are centrifuged at 18,500 g-force for 3 minutes to remove undissolved solids from the sample. For analysis, a supernatant sample (100 μL) is diluted 5× using 1:1 acetonitrile/H2O and analyzed. The non-sink dissolution test is completed at room temperature.

C=CC(=O)N1CCN([C@@H](CC2CC2)c2ccc([C@H](C)Nc3ncc4c(n3)N(CC)C(=O)OC4)cc2)CC1 [TC1, 7-[[(1S)-1-[4-[(1S)-2-cyclopropyl-1-(4-prop-2-enoylpiperazin-1-yl)ethyl]phenyl]ethyl]amino]-1-ethyl-4H-pyrimido[4,5-d][1,3]oxazin-2-one]
solubility, acidic versus neutral environment [1]: more soluble in an acidic environment than a neutral one

C=CC(=O)N1CCN([C@@H](CC2CC2)c2ccc([C@H](C)Nc3ncc4c(n3)N(CC)C(=O)OC4)cc2)CC1 [TC2, 7-[[(1S)-1-[4-[(1S)-2-cyclopropyl-1-(4-prop-2-enoylpiperazin-1-yl)ethyl]phenyl]ethyl]amino]-1-ethyl-4H-pyrimido[4,5-d][1,3]oxazin-2-one, 2,5-dihydroxybenzoic acid (1:2)]
solution concentration at the 70 minute timepoint at elevated pH as compared to TC1 [2]: increased solution concentration
